These results are taken from ChEMBL document CHEMBL1143342, “Death receptor 5 targeting activity-guided isolation of isoflavones from Millettia brandisiana and Ardisia colorata and evaluation of ability to induce TRAIL-mediated apoptosis” (2009).

SMILES strings stand for the structures. Calls of active or inactive are those of the source. The rule behind the calls is not given here.

One test relates to DLD-1. As to the kind of experiment: Induction of DR5 promoter activity in SacI gene expressing human DLD1 cells at 17.5 uM after 24 hrs by luminescence assay. It is filed as functional.
The test system of test [1] is AGS. Put plainly: Induction of apoptosis in TRAIL-resistant human AGS cells assessed as late apoptotic cells at 40 uM after 24 hrs using annexin-V-FITC/propidium iodide staining by flow cytometry. It is filed as functional. For orientation: A flow cytometer gives signals particle by particle.
Test [2] deals with AGS. Put plainly: Induction of apoptosis in TRAIL-resistant human AGS cells assessed as early apoptotic cells at 40 uM after 24 hrs using annexin-V-FITC/propidium iodide staining by flow cytometry. It is filed as functional.
In test [3] the test system is AGS. As to the kind of experiment: Induction of apoptosis in TRAIL-resistant human AGS cells assessed as late apoptotic cells at 50 uM after 24 hrs using annexin-V-FITC/propidium iodide staining by flow cytometry. It is filed as functional.
In test [4] the test system is AGS. Put plainly: Induction of apoptosis in TRAIL-resistant human AGS cells assessed as early apoptotic cells at 50 uM after 24 hrs using annexin-V-FITC/propidium iodide staining by flow cytometry. It is filed as functional.
Test [5] deals with AGS. As to the kind of experiment: Induction of apoptosis in TRAIL-resistant human AGS cells assessed as late apoptotic cells at 60 uM after 24 hrs using annexin-V-FITC/propidium iodide staining by flow cytometry. It is filed as functional.
The subject of test [6] is AGS. As to the kind of experiment: Induction of apoptosis in TRAIL-resistant human AGS cells assessed as early apoptotic cells at 60 uM after 24 hrs using annexin-V-FITC/propidium iodide staining by flow cytometry. It is filed as functional.
In test [7] the test system is AGS. As to the kind of experiment: Sensitization of TRAIL-induced apoptosis in TRAIL-resistant human AGS cells assessed as late apoptotic cells at 40 uM after 24 hrs using annexin-V-FITC/propidium iodide staining by flow cytometry. It is filed as functional.
Test [8] relates to AGS. As to the kind of experiment: Sensitization of TRAIL-induced apoptosis in TRAIL-resistant human AGS cells assessed as early apoptotic cells at 40 uM after 24 hrs using annexin-V-FITC/propidium iodide staining by flow cytometry. It is filed as functional.
Test [9] has as its system AGS. As to the kind of experiment: Sensitization of TRAIL-induced apoptosis in TRAIL-resistant human AGS cells assessed as late apoptotic cells at 50 uM after 24 hrs using annexin-V-FITC/propidium iodide staining by flow cytometry. It is filed as functional.
Test [10] relates to AGS. As to the kind of experiment: Sensitization of TRAIL-induced apoptosis in TRAIL-resistant human AGS cells assessed as early apoptotic cells at 50 uM after 24 hrs using annexin-V-FITC/propidium iodide staining by flow cytometry. It is filed as functional.
For test [11], the system named is AGS. As to the kind of experiment: Sensitization of TRAIL-induced apoptosis in TRAIL-resistant human AGS cells assessed as late apoptotic cells at 60 uM after 24 hrs using annexin-V-FITC/propidium iodide staining assay. It is filed as functional.
The subject of test [12] is AGS. As to the kind of experiment: Sensitization of TRAIL-induced apoptosis in TRAIL-resistant human AGS cells assessed as early apoptotic cells at 60 uM after 24 hrs using annexin-V-FITC/propidium iodide staining by flow cytometry. It is filed as functional.
The subject of test [13] is AGS. Put plainly: Sensitization of TRAIL-induced apoptosis in TRAIL-resistant human AGS cells assessed as accumulation at sub-G1 phase at 60 uM after 24 hrs using annexin-V-FITC/propidium iodide staining by flow cytometry in presence of DR5/Fc chimeric protein. It is filed as functional, cell-based.
For test [14], the system named is AGS. Put plainly: Induction of TRAIL-induced apoptosis in TRAIL-resistant human AGS cells assessed as increase in caspase 8 activity after 12 hrs by luminescence assay. It is filed as functional, cell-based.
Test [15] deals with AGS. Put plainly: Induction of TRAIL-induced apoptosis in TRAIL-resistant human AGS cells assessed as increase in caspase 3/7 activity after 24 hrs by luminescence assay. It is filed as functional, cell-based.
Test [16] concerns AGS. As to the kind of experiment: Induction of DR5 mRNA expression in TRAIL-resistant human AGS cells by RT-PCR. It is filed as functional, cell-based.
In test [17] the test system is AGS. Put plainly: Induction of DR5 protein expression in TRAIL-resistant human AGS cells after 24 hrs by Western blot analysis. It is filed as functional, cell-based.
The test system of test [18] is AGS. As to the kind of experiment: Sensitization of TRAIL-induced apoptosis in TRAIL-resistant human AGS cells assessed as increase in DR5 expression. It is filed as functional, cell-based.

As for `COc1ccc(-c2coc3cc(O)ccc3c2=O)c(O)c1` [XENOGNOSIN B], in the test on DLD-1, the Activity was found to be 2.5.

In the case of `COc1cc(-c2coc3c4c(cc(O)c3c2=O)OC(C)(C)C=C4)c(OC)cc1O`, the Activity is on record as 5.6% in the test with AGS [1]; 9.6% in the test with AGS [2]; 3.9% in the test on AGS [3]; 15.2% in the test on AGS [4]; 6.9% in the test on AGS [5]; 17.4% with AGS [6]. In addition, the Activity in the test with AGS [7] amounted to 12.9%; with AGS [8], 12.1%; in the test with AGS [9], 19.5%; with AGS [10] it was 16.3%; with AGS [11] it was 44.1%; in the test on AGS [12], 23.4%. Besides, the Activity result with AGS [14], in the test on AGS [15], in the test with AGS [16] and in the test on AGS [17] was “Dose-dependent effect” each time. Moreover, the outcome with AGS [13] was inactive. Moreover, the outcome in the test with AGS [18] was Active.
